Several values for one entry are separate records, joined by “and”; a condition that tells them apart may be missing. Identical values can stand only once. Marks after values point to notes of the source that are not given here.
Assays:
[1] = system: 10CS0048 (MIDAS); experiment: Phenotype scoring (R/S) after thifensulfuron-methyl 2.5 g ai/ha; format: in vivo, Camelina sativa; conditions: 7 d after application
Excerpt: (§1) At a thifensulfuron-methyl application rate of 2.5 g ai/ha, plants from parental, F2, BC1F1, and BC4F2 populations could easily be scored into one of two discrete phenotypic classes (R, resistant or S, susceptible) 7 d after herbicide application.

[2] = system: 12CS0365; experiment: as above; format: in vivo, Camelina sativa; conditions: 7 d after application
Excerpt: as §1

[3] = system: 12CS0366; experiment: as above; format: in vivo, Camelina sativa; conditions: 7 d after application
Excerpt: as §1

[4] = system: 13CS0786; experiment: as above; format: in vivo, Camelina sativa; conditions: 7 d after application
Excerpt: as §1

[5] = system: SRS 934; experiment: as above; format: in vivo, Camelina sativa; conditions: 7 d after application
Excerpt: as §1

[6] = system: segregating camelina populations; experiment: Segregation of resistance to thifensulfuron-methyl in F2, BC1F1 and BC4F2 populations; format: in vivo, Camelina sativa; conditions: 2.5 g ai/ha, 7 d
Excerpt: From each cross combination, randomly selected F1 plants were selfed for the development of F2 populations segregating for 1 resistance gene.
Further, mutant lines 12CS0365 and 12CS0366 were crossed with each other and a randomly selected F1 plant selfed for the development of an F2 population segregating for 2 independent resistance genes. F4 progeny of F2 plants homozygous for both resistance genes (13CS0786) was backcrossed to 10CS0048 to form a backcross (BC1F1) population. Further backcrossing to the recurrent parent 10CS0048 was conducted until stabilization of the trait in the BC4F3 generation (homozygous for 2 resistance genes).
as §1
Assuming inheritance in a Mendelian manner, the expected genotypic segregation ratio in an F2 population segregating for a single resistance gene would be 1(RR): 2(Rr): 1(rr), or 3(RR, Rr): 1(rr).
If two unlinked genes for resistance are segregating in an F2 population, the expected genotypic segregation ratio would be 9 (R1-R2-): 2 (R1r1r2r2): 2 (r1r1R2r2): 1 (R1R1r2r2): 1 (r1r1R2R2): 1 (r1r1r2r2), or 15 (R1-R2-, R1r1r2r2, r1r1R2r2, R1R1r2r2, r1r1R2R2): 1 (r1r1r2r2). The expected genotypes in the BC1F1 population would be R1r1R2r2, R1r1r2r2, r1r1R2r2, and r1r1r2r2, each produced in equal frequency, resulting in a segregation ratio of 1 (R1r1R2r2): 2 (R1r1r2r2, r1r1R2r2): 1 (r1r1r2r2), or 3 (R1r1R2r2, R1r1r2r2, r1r1R2r2): 1 (r1r1r2r2). The expected segregation ratio in the BC4F2 generation would be the same as that observed in the F2 population.
The F2 population resulting from the reciprocal cross of 10CS0048 with 12CS0365 and 12CS0366, respectively, the F2 population resulting from the cross 12CS0365/12CS0366 and the BC1F1 and BC4F2 populations resulting from the cross of F4 plants homozygous for 2 resistance genes (13CS0786) with recurrent parent 10CS0048, gave good fit to the expected segregation ratios (Table 7).

[7] = system: SRS 934; experiment: Greenhouse dose-response to thifensulfuron-methyl (height, biomass); format: in vivo, Camelina sativa; conditions: 21 days after application, rates 0 to 525 g ai/ha, n = 16
[8] = system: 12CS0365; experiment: as above; format: in vivo, Camelina sativa; conditions: 21 days after application, rates 0 to 525 g ai/ha, n = 16
[9] = system: 12CS0366; experiment: as above; format: in vivo, Camelina sativa; conditions: 21 days after application, rates 0 to 525 g ai/ha, n = 16
[10] = system: 13CS0786; experiment: as above; format: in vivo, Camelina sativa; conditions: 21 days after application, rates 0 to 525 g ai/ha, n = 16
[11] = system: AHAS of 14CS0851-01-14; experiment: AHAS product feedback inhibition assay; format: biochemical, Camelina sativa; conditions: for sensitivity of AHAS to feedback inhibition, comparison of enzyme extracts: 14CS0851-01-14 vs SRS 934 and MIDAS, 1 mM, 10 mM; for Absorbance reading (530 nm), raw data: single reps
Method: (§2) Briefly, for each of the three comparators, leaf and stem (petiole) material was bulk-harvested at the 3-4 leaf stage from at least 30 plantlets, snap-frozen in liquid nitrogen, and stored at −80° C. The AHAS in vitro assay was conducted according to the method of Singh et al (1988), with modifications by Yu (2010) and Rustgi (2014). For each comparator, 4 grams of frozen material were ground to a fine powder with a mortar and pestle in liquid nitrogen and homogenized in 1 volume of cold extraction buffer containing 100 mM potassium phosphate buffer (pH7.5), 10 mM sodium pyruvate, 5 mM MgCl2, 100 μM flavin adenine dinucleotide (FAD), and 10% glycerol. Four 2-mL microcentrifuge tubes were used for each comparator. The homogenate was centrifuged at 13,000 rpm for 10 min at 4° C., supernatant collected and re-centrifuged for an additional 10 minutes under the same conditions. For each tube, 1 mL of supernatant was pipetted into a new 2-mL microcentrifuge tube, and protein was precipitated by the addition of 1 mL of saturated ammonium sulfate. The solution was mixed well by vortex and allowed to stand on ice for 20 minutes, then centrifuged at 13,000 rpm at 4° C. The protein pellet was resuspended in 300 μL of reaction buffer containing 50 mM potassium phosphate buffer (pH7.5), 100 mM sodium pyruvate, 10 mM MgCl2, 1 mM EDTA, 10 μM FAD, 100 mM NaCl, and 1 mM thiamine pyrophosphate. Tubes of each comparator were combined, mixed well, kept on ice and immediately used in the AHAS activity and feedback inhibition assays.
(§3) Total protein concentration of the crude extract was determined by the Bradford method (Bradford, 1976). All assays were conducted using 300 μg of total protein each.
(§4) […] (2010). The reaction mixture contained 50 μL enzyme extract and 50 μL 100 mM sodium pyruvate and inhibitor amino acid. The reaction was incubated at 37° C. for 60 minutes, then stopped and acetolactate converted to acetoin with the addition of 20 μL of 6 N H2SO4 and incubated at 60° C. for 15 minutes. A separate background “blank” was included for each sample group by adding 20 μL of 6 N H2SO4 prior to the addition of the enzyme extracts. Then, 95 μL of 0.55% w/v creatine solution and 95 μL of α-naphthol solution (5.5% w/v in 5 N NaOH) were added and the mixture incubated at 60° C. for a further 15 minutes. After cooling to room temperature for 15 minutes, enzyme activity was determined colorimetrically by reading the absorbance at 530 nm. Three independent experiments were conducted. Experiment 1 and 2 each contained 2 technical replicates, while experiment 3 included 3 technical replicates.

[12] = system: AHAS of MIDAS; experiment: AHAS product feedback inhibition assay; format: biochemical, Camelina sativa; conditions: for Absorbance reading (530 nm), raw data: single reps
Method: as §2, §3, §4

[13] = system: AHAS of SRS 934; experiment: AHAS product feedback inhibition assay; format: biochemical, Camelina sativa; conditions: for Absorbance reading (530 nm), raw data: single reps
Method: as §2, §3, §4

[14] = F2 of 12CS0365 × 10CS0048 (reciprocal)
[15] = F2 of 12CS0366 × 10CS0048 (reciprocal)
[16] = Experiment 1, 30 (mM) amino acid
[17] = Experiment 2, 30 (mM) amino acid
[18] = Experiment 2, 100 mM amino acid
[19] = Experiment 3, 30 (mM) amino acid
[20] = Experiment 2, 10 mM amino acid, listed as Valine

COC(=O)c1sccc1S(=O)(=O)NC(=O)Nc1nc(C)nc(OC)n1 [thifensulfuron-methyl]
phenotype after herbicide application [1]: either killed or greatly damaged | phenotype after herbicide application [2]: resistant phenotype | phenotype after herbicide application [3]: resistant phenotype | phenotype after herbicide application [4]: resistant phenotype | phenotype after herbicide application [5]: either killed or greatly damaged | Resistant (R), number of plants ([6]; BC1F1 of 10CS0048 × 13CS0786): 27 (27)^ | Susceptible (S), number of plants ([6]; BC1F1 of 10CS0048 × 13CS0786): 9 (9) | Resistant (R), number of plants ([6]; BC4F2 of 10CS0048 × 13CS0786): 147 (147.2) | Susceptible (S), number of plants ([6]; BC4F2 of 10CS0048 × 13CS0786): 10 (9.8) | Resistant (R), number of plants [6, 14]: 555 (568)^‡ | Susceptible (S), number of plants [6, 14]: 202 (189) | Resistant (R), number of plants ([6]; F2 of 12CS0365 × 12CS0366): 307 (306.6) | Susceptible (S), number of plants ([6]; F2 of 12CS0365 × 12CS0366): 20 (20.4) | Resistant (R), number of plants [6, 15]: 549 (540)^ | Susceptible (S), number of plants [6, 15]: 171 (180) | ED50 biomass [7]: 0.09 g ai/ha | ED50 height [7]: 0.14 g ai/ha | ED50 biomass [8]: 0.69 g ai/ha | ED50 height [8]: 1.81 g ai/ha | ED50 biomass [9]: 8.67 g ai/ha | ED50 height [9]: 5.25 g ai/ha | ED50 biomass [10]: 89.61 g ai/ha | ED50 height [10]: 26.36 g ai/ha

CC(C)C[C@H](N)C(=O)O [leucine]
sensitivity of AHAS to feedback inhibition, comparison of enzyme extracts ([11]; 100 mM amino acid): no significant difference | Absorbance reading (530 nm), AVG of reps ([11]; Experiment 1, 100 mM amino acid): 0.143

CC[C@H](C)[C@H](N)C(=O)O [isoleucine]
sensitivity of AHAS to feedback inhibition, comparison of enzyme extracts ([11]; 100 mM amino acid): no significant difference | Absorbance reading (530 nm), AVG of reps [11, 16]: 0.209 | Absorbance reading (530 nm), raw data [11, 16]: 0.201 and 0.217 | Absorbance reading (530 nm), AVG of reps [11, 17]: 0.186 | Absorbance reading (530 nm), raw data [11, 18]: 0.170 | Absorbance reading (530 nm), raw data [11, 17]: 0.200 and 0.171 | Absorbance reading (530 nm), AVG of reps [11, 19]: 0.088 | Absorbance reading (530 nm), raw data [11, 19]: 0.087 and 0.082 and 0.094 | Absorbance reading (530 nm), AVG of reps [12, 16]: 0.2675 | Absorbance reading (530 nm), raw data [12, 16]: 0.275 and 0.26 | Absorbance reading (530 nm), AVG of reps [12, 18]: 0.163 | Absorbance reading (530 nm), raw data [12, 17]: 0.208 and 0.176 | Absorbance reading (530 nm), AVG of reps [12, 19]: 0.103 | Absorbance reading (530 nm), raw data [12, 19]: 0.100 and 0.107 and 0.102 | Absorbance reading (530 nm), AVG of reps [13, 16]: 0.234 | Absorbance reading (530 nm), raw data [13, 16]: 0.233 | Absorbance reading (530 nm), AVG of reps [13, 17]: 0.187 | Absorbance reading (530 nm), raw data [13, 17]: 0.219 and 0.154 | Absorbance reading (530 nm), AVG of reps [13, 19]: 0.033 | Absorbance reading (530 nm), raw data [13, 19]: 0.100

CC(C)[C@H](N)C(=O)O [valine]
sensitivity of AHAS to feedback inhibition, comparison of enzyme extracts ([11]; 100 mM amino acid): no significant difference | Absorbance reading (530 nm), AVG of reps ([11]; Experiment 2, 10 mM amino acid): 0.178 | Absorbance reading (530 nm), raw data ([11]; Experiment 2, 10 mM amino acid): 0.190 | Absorbance reading (530 nm), raw data [11, 18]: 0.333 | Absorbance reading (530 nm), AVG of reps ([11]; Experiment 3, 10 mM amino acid): 0.073 | Absorbance reading (530 nm), raw data ([11]; Experiment 3, 10 mM amino acid): 0.057 and 0.084 | Absorbance reading (530 nm), AVG of reps ([12]; Experiment 1, 10 mM amino acid): 0.214 | Absorbance reading (530 nm), raw data ([12]; Experiment 1, 10 mM amino acid): 0.205 and 0.223 | Absorbance reading (530 nm), AVG of reps ([12]; Experiment 2, 10 mM amino acid): 0.191 | Absorbance reading (530 nm), raw data ([12]; Experiment 2, 10 mM amino acid): 0.217 | Absorbance reading (530 nm), raw data [12, 20]: 0.165 | Absorbance reading (530 nm), AVG of reps ([12]; Experiment 3, 10 mM amino acid): 0.112 | Absorbance reading (530 nm), raw data ([12]; Experiment 3, 10 mM amino acid): 0.133 and 0.110 and 0.112 | Absorbance reading (530 nm), AVG of reps ([13]; Experiment 1, 10 mM amino acid): 0.184 | Absorbance reading (530 nm), raw data ([13]; Experiment 1, 10 mM amino acid): 0.186 and 0.182 | Absorbance reading (530 nm), AVG of reps ([13]; Experiment 2, 10 mM amino acid): 0.179 | Absorbance reading (530 nm), raw data [13, 20]: 0.206 and 0.151 | Absorbance reading (530 nm), AVG of reps ([13]; Experiment 3, 10 mM amino acid): 0.093 | Absorbance reading (530 nm), raw data ([13]; Experiment 3, 10 mM amino acid): 0.091

From patent US20250146011A1, “HERBICIDE-RESISTANT CAMELINA SATIVA PLANTS, AND VARIANT CAMELINA ACETOHYDROXYACID SYNTHASE POLYPEPTIDES” (Smart Earth Camelina Corp., priority 2019, published 2025)
